Here are results for one substance from US6582718B2, “Cyclosporin compositions” (Novartis AG, priority 1992, dated 2003).

The nature of this data set: Irritation of the eyes by surfactants used in eye-drops. The text has this:
In an attempt to solve these problems, studies have been conducted with various surfactants which are currently used for formulating medical substances with low solubility in water, especially the most commonly used surfactants polysorbate 80 and polyoxyethylene hydrogenated castor oil.

Polyoxyethylene hydrogenated castor oil: the “irritation of the eyes” value is listed as “strongly irritate the eyes”.
